Numbers after ± are expanded uncertainties.
Assay: activity coefficient (dimensionless); of the first substance listed, at infinite dilution; xn = mol fraction of the nth substance listed
Details: Liquid, x1 = 0

| activity coefficient (308.15 K) | activity coefficient (318.15 K) | activity coefficient (328.15 K) | SMILES |
| --- | --- | --- | --- |
| 0.59 ± 0.06 | 0.58 ± 0.06 | 0.57 ± 0.06 | C=CCCCCC [1-heptene] + CCCCCCCCCCCCCC[P+](CCCCCC)(CCCCCC)CCCCCC.FC(F)(F)C(F)(F)[P-](F)(F)(F)(C(F)(F)C(F)(F)F)C(F)(F)C(F)(F)F |
| 0.46 ± 0.05 | 0.46 ± 0.05 | 0.45 ± 0.05 | C#CCCCCC [1-heptyne] + CCCCCCCCCCCCCC[P+](CCCCCC)(CCCCCC)CCCCCC.FC(F)(F)C(F)(F)[P-](F)(F)(F)(C(F)(F)C(F)(F)F)C(F)(F)C(F)(F)F |
| 0.42 ± 0.05 | 0.42 ± 0.05 | 0.41 ± 0.05 | C#CCCCC [1-hexyne] + CCCCCCCCCCCCCC[P+](CCCCCC)(CCCCCC)CCCCCC.FC(F)(F)C(F)(F)[P-](F)(F)(F)(C(F)(F)C(F)(F)F)C(F)(F)C(F)(F)F |
| 0.57 ± 0.06 | 0.52 ± 0.06 | 0.51 ± 0.06 | C#CCCCCCC [1-octyne] + CCCCCCCCCCCCCC[P+](CCCCCC)(CCCCCC)CCCCCC.FC(F)(F)C(F)(F)[P-](F)(F)(F)(C(F)(F)C(F)(F)F)C(F)(F)C(F)(F)F |
| 0.2 ± 0.06 | 0.19 ± 0.06 | 0.19 ± 0.06 | c1ccccc1 [benzene] + CCCCCCCCCCCCCC[P+](CCCCCC)(CCCCCC)CCCCCC.FC(F)(F)C(F)(F)[P-](F)(F)(F)(C(F)(F)C(F)(F)F)C(F)(F)C(F)(F)F |
| 0.54 ± 0.06 | 0.52 ± 0.06 | 0.49 ± 0.06 | C1CCCCCC1 [cycloheptane] + CCCCCCCCCCCCCC[P+](CCCCCC)(CCCCCC)CCCCCC.FC(F)(F)C(F)(F)[P-](F)(F)(F)(C(F)(F)C(F)(F)F)C(F)(F)C(F)(F)F |
| 0.49 ± 0.06 | 0.48 ± 0.05 | 0.44 ± 0.05 | C1CCCCC1 [cyclohexane] + CCCCCCCCCCCCCC[P+](CCCCCC)(CCCCCC)CCCCCC.FC(F)(F)C(F)(F)[P-](F)(F)(F)(C(F)(F)C(F)(F)F)C(F)(F)C(F)(F)F |
| 0.42 ± 0.05 | 0.42 ± 0.05 | 0.41 ± 0.05 | C1CCCC1 [cyclopentane] + CCCCCCCCCCCCCC[P+](CCCCCC)(CCCCCC)CCCCCC.FC(F)(F)C(F)(F)[P-](F)(F)(F)(C(F)(F)C(F)(F)F)C(F)(F)C(F)(F)F |
| 1.2 ± 0.09 | 1.07 ± 0.08 | 0.93 ± 0.07 | CCO [ethanol] + CCCCCCCCCCCCCC[P+](CCCCCC)(CCCCCC)CCCCCC.FC(F)(F)C(F)(F)[P-](F)(F)(F)(C(F)(F)C(F)(F)F)C(F)(F)C(F)(F)F |
| 0.74 ± 0.06 | 0.72 ± 0.06 | 0.7 ± 0.06 | CCCCCCC [heptane] + CCCCCCCCCCCCCC[P+](CCCCCC)(CCCCCC)CCCCCC.FC(F)(F)C(F)(F)[P-](F)(F)(F)(C(F)(F)C(F)(F)F)C(F)(F)C(F)(F)F |
| 0.53 ± 0.06 | 0.53 ± 0.06 | 0.52 ± 0.06 | C=CCCCC [hex-1-ene] + CCCCCCCCCCCCCC[P+](CCCCCC)(CCCCCC)CCCCCC.FC(F)(F)C(F)(F)[P-](F)(F)(F)(C(F)(F)C(F)(F)F)C(F)(F)C(F)(F)F |
| 0.66 ± 0.06 | 0.64 ± 0.06 | 0.62 ± 0.06 | CCCCCC [hexane] + CCCCCCCCCCCCCC[P+](CCCCCC)(CCCCCC)CCCCCC.FC(F)(F)C(F)(F)[P-](F)(F)(F)(C(F)(F)C(F)(F)F)C(F)(F)C(F)(F)F |
| 1.23 ± 0.09 | 1.14 ± 0.08 | 1.01 ± 0.07 | CO [methanol] + CCCCCCCCCCCCCC[P+](CCCCCC)(CCCCCC)CCCCCC.FC(F)(F)C(F)(F)[P-](F)(F)(F)(C(F)(F)C(F)(F)F)C(F)(F)C(F)(F)F |
| 0.67 ± 0.06 | 0.65 ± 0.06 | 0.64 ± 0.06 | C=CCCCCCC [oct-1-ene] + CCCCCCCCCCCCCC[P+](CCCCCC)(CCCCCC)CCCCCC.FC(F)(F)C(F)(F)[P-](F)(F)(F)(C(F)(F)C(F)(F)F)C(F)(F)C(F)(F)F |
| 0.84 ± 0.06 | 0.8 ± 0.06 | 0.77 ± 0.06 | CCCCCCCC [octane] + CCCCCCCCCCCCCC[P+](CCCCCC)(CCCCCC)CCCCCC.FC(F)(F)C(F)(F)[P-](F)(F)(F)(C(F)(F)C(F)(F)F)C(F)(F)C(F)(F)F |
| 0.61 ± 0.06 | 0.6 ± 0.06 | 0.59 ± 0.06 | CCCCC [pentane] + CCCCCCCCCCCCCC[P+](CCCCCC)(CCCCCC)CCCCCC.FC(F)(F)C(F)(F)[P-](F)(F)(F)(C(F)(F)C(F)(F)F)C(F)(F)C(F)(F)F |
| 1.16 ± 0.09 | 1 ± 0.07 | 0.87 ± 0.06 | CCCO [propan-1-ol] + CCCCCCCCCCCCCC[P+](CCCCCC)(CCCCCC)CCCCCC.FC(F)(F)C(F)(F)[P-](F)(F)(F)(C(F)(F)C(F)(F)F)C(F)(F)C(F)(F)F |

Reference: the NIST ThermoML archive (doi:10.1016/j.fluid.2005.04.021)
